# Measured values as given in patent publication EP0512754B1 (AMERICAN HOME PRODUCTS CORPORATION, priority 1991, dated 1992).
# Like-named read-outs stand apart in the source and are kept apart here.
# What was measured:
# [1] = tested on: pinch skin graft from male DBA/2 donors transplanted to male BALB/c recipients; assay: pinch skin graft survival time; type: in vivo; settings: DBA/2 donors to BALB/c recipients, treated intraperitoneally; mean ± S.D.
# Experimental: (§1) Immunosuppressive activity was evaluated in an in vitro standard pharmacological test procedure to measure lymphocyte proliferation (LAF) and in two in vivo standard pharmacological test procedures. The first in vivo procedure was a popliteal lymph node (PLN) test procedure which measured the effect of compounds of this invention on a mixed lymphocyte reaction and the second in vivo procedure evaluated the survival time of a pinch skin graft.
# The second in vivo test procedure is designed to determine the survival time of pinch skin graft from male DBA/2 donors transplanted to male BALB/c recipients. The method is adapted from Billingham R.E. and Medawar P.B., J. Exp. Biol. 28:385-402, (1951). Briefly, a pinch skin graft from the donor is grafted on the dorsum of the recipient as a homograft, and an autograft is used as control in the same region. […] Untreated recipients serve as rejection control. The graft is monitored daily and observations are recorded until the graft becomes dry and forms a blackened scab. This is considered as the rejection day. The mean graft survival time (number of days ± S.D.) of the drug treatment group is compared with the control group.
# [2] = tested on: mixed lymphocyte reaction; assay: popliteal lymph node (PLN) test procedure, in vivo mixed lymphocyte reaction; set-up: species or system C3H mice; settings: for PLN Activity relative to Rapamycin: ratio to rapamycin
# Experimental: as §1
# A mixed lymphocyte reaction (MLR) occurs when lymphoid cells from genetically distinct animals are combined in tissue culture. Each stimulates the other to undergo blast transformation which results in increased DNA synthesis that can be quantified by the incorporation of tritiated thymidine. Since stimulating a MLR is a function of disparity at Major Histocompatibility antigens, an in vivo popliteal lymph node (PLN) test procedure closely correlates to host vs. graft disease. Briefly, irradiated spleen cells from BALB/c donors are injected into the right hind foot pad of recipient C3H mice. […] On Day 3 and Day 4, tritiated thymidine is given i.p., b.i.d. On Day 5, the hind popliteal lymph nodes are removed and dissolved, and radioactivity counted. The corresponding left PLN serves as the control for the PLN from the injected hind foot. Percent suppression is calculated using the non-drug treated animals as allogenic control.
# [3] = tested on: cells from the thymus of normal BALB/c mice; assay: comitogen-induced thymocyte proliferation procedure (LAF); type: cell-based; settings: read-out: LAF IC50
# Experimental: as §1
# The comitogen-induced thymocyte proliferation procedure (LAF) was used as an in vitro measure of the immunosuppressive effects of representative compounds. Briefly, cells from the thymus of normal BALB/c mice are cultured for 72 hours with PHA and IL-1 and pulsed with tritiated thymidine during the last six hours. […] Cells are harvested and incorporated; radioactivity is determined. Inhibition of lymphoproliferation is assessed in percent change in counts per minute from non-drug treated controls. […] (()^3 (H-control thymus cells - H)^3 rapamycin-treated thymus cells)/(()^3 (H-control thymus cells - H)^3 -test compound-treated cells) [formula]
# [4] = tested on: Candida albicans 3669; assay: plate test procedure for antifungal activity; type: cell-based; settings: strain 3669
# Experimental: (§2) Antifungal activity of the compounds of this invention was measured against 5 strains of Candida albicans using a plate test procedure for measurement of inhibition. The following represents the typical procedure used. The compound to be tested was placed on sterile dried 1/4" plate disks, and allowed to dry. Agar plates were seeded with fungi and allowed to solidify. The impregnated disks were placed on the seeded Agar surface and incubated for the time required for the particular culture. Results are expressed in MIC (µg/ml) to inhibit growth.
# (§3) The compounds of Examples 1 and 4 had the following minimal inhibitory concentrations (50%) against 5 strains of Candida albicans.
# [5] = tested on: Candida albicans ATCC 38247; assay: plate test procedure for antifungal activity; type: cell-based; settings: strain ATCC 38247
# Experimental: as §2, §3
# [6] = tested on: Candida albicans ATCC 10231; assay: plate test procedure for antifungal activity; type: cell-based; settings: strain ATCC 10231
# Experimental: as §2, §3
# [7] = tested on: Candida albicans ATCC 38246; assay: plate test procedure for antifungal activity; type: cell-based; settings: strain ATCC 38246
# Experimental: as §2, §3
# [8] = tested on: Candida albicans ATCC 38248; assay: plate test procedure for antifungal activity; type: cell-based; settings: strain ATCC 38248
# Experimental: as §2, §3
# [9] = thymocytes cultured 72 hours with PHA and IL-1, tritiated thymidine incorporation
# [10] = Mus musculus, Thymocyte, 72 h, thymocytes cultured 72 hours with PHA and IL-1, tritiated thymidine incorporation
Compound,Skin Graft Mean survival days [1] [days],"IC50 [3, 9] [nM]","IC50 [3, 10] [nM]",PLN Activity relative to Rapamycin ([2]; ip),also measured
33-Deoxy-33-hydroxyrapamycin [Example 4],10.0,4.7,–,–,"PLN Activity relative to Rapamycin ([2]; route not printed in the cell (method: daily p.o. Day 0 to Day 4)): 0.59; Anti-Candida Activity, Minimal Inhibitory Concentration (50%) [4]: 0.25 µg/mL; Anti-Candida Activity, Minimal Inhibitory Concentration (50%) [5]: 0.03 µg/mL; Anti-Candida Activity, Minimal Inhibitory Concentration (50%) [6]: 0.05 µg/mL; Anti-Candida Activity, Minimal Inhibitory Concentration (50%) [7]: >0.4 µg/mL; Anti-Candida Activity, Minimal Inhibitory Concentration (50%) [8]: 0.006 µg/mL"
"CO[C@H]1C[C@@H]2CC[C@@H](C)[C@@](O)(O2)C(O)C(=O)N2CCCC[C@H]2C(=O)O[C@H]([C@H](C)C[C@@H]2CC[C@@H](O)[C@H](OC)C2)CC(O)[C@H](C)/C=C(\C)[C@@H](O)[C@@H](OC)C(=O)[C@H](C)C[C@H](C)/C=C/C=C/C=C/1C (single isomer, unassigned) [Example 2, 15,27-di(deoxo)-15,27-di(hydroxy)rapamycin]",9.2 ± 0.41,–,0.67,–,–
"CO[C@H]1C[C@@H]2CC[C@@H](C)[C@@](O)(O2)C(O)C(=O)N2CCCC[C@H]2C(=O)O[C@H]([C@H](C)C[C@@H]2CC[C@@H](O)[C@H](OC)C2)CC(O)[C@H](C)/C=C(\C)[C@@H](O)[C@@H](OC)C(=O)[C@H](C)C[C@H](C)/C=C/C=C/C=C/1C (single isomer, unassigned) [Example 3, 15,27-di(deoxo)-15,27-di(hydroxy)rapamycin]",9.5 ± 5.5,0.84,–,0.92 ip,–
"CO[C@H]1C[C@@H]2CC[C@@H](C)[C@@](O)(O2)C(O)C(=O)N2CCCC[C@H]2C(=O)O[C@H]([C@H](C)C[C@@H]2CC[C@@H](O)[C@H](OC)C2)CC(=O)[C@H](C)/C=C(\C)[C@@H](O)[C@@H](OC)C(=O)[C@H](C)C[C@H](C)/C=C/C=C/C=C/1C (stereo partly shown) [Example 1, 15-Deoxo-15-hydroxyrapamycin]",9.8 ± 1.0,–,0.58,-0.07,PLN Activity relative to Rapamycin ([2]; po): -2.47
"CO[C@H]1C[C@@H]2CC[C@@H](C)[C@@](O)(O2)C(=O)C(=O)N2CCCC[C@H]2C(=O)O[C@H]([C@H](C)C[C@@H]2CC[C@@H](O)[C@H](OC)C2)CC(=O)[C@H](C)/C=C(\C)[C@@H](O)[C@@H](OC)C(=O)[C@H](C)C[C@H](C)/C=C/C=C/C=C/1C [Rapamycin, reference compound]",–,–,–,–,"Percent suppression (PLN) ([2]; 6 mg/kg, p.o., against non-drug treated allogenic control): 86%; IC50 ([3]; Mus musculus, Thymocyte, 72 h): 3.3 nM"
